Columns and labels:
Format in all cases: functional
[1] = tested on: Mycobacterium tuberculosis; assay: Antitubercular activity against Mycobacterium tuberculosis H37Rv ATCC 27294 assessed as growth inhibition at 6.25 ug/ml by microplate alamar blue assay relative to control
[2] = tested on: Mycobacterium tuberculosis; assay: Antitubercular activity against Mycobacterium tuberculosis H37Rv ATCC 27294 assessed as inhibition of [3H]-thymidine incorporation relative to control
[3] = tested on: Mycobacterium tuberculosis; assay: Antitubercular activity against Mycobacterium tuberculosis infected in mouse assessed as reduction in microbial load at 2 to 3 mg ip, pretreated for 48 to 72 hrs followed by microbial infection and subsequent compound dosing at 48 to 72 hrs post-infection measured 24 to 32 days post-infection relative to control; set-up: scale not given: the % may be the effect or the level left

Row | Structure (SMILES) | inhibition at 6.25 µg/mL [1] [%] | inhibition (INH) [2] [%] | Activity [3]
1 | c1csc(-c2ncnc3c2ncn3C2CCOCC2)c1 | 0 | 23 | 
2 | c1csc(-c2[nH]cnc3ncnc2-3)c1 | 7 | <10 | 
3 | c1coc(-c2ncnc3c2ncn3C2CCOCC2)c1 | 0 | 15 | 
4 | c1ccc(CCn2cnc3c(-c4ccco4)ncnc32)cc1 | 26 | 53 | 
5 | Oc1c2cc(-c3ccccc3)cc1Cc1cc(-c3ccccc3)cc(c1O)Cc1cc(-c3ccccc3)cc(c1O)Cc1cc(-c3ccccc3)cc(c1O)Cc1cc(-c3ccccc3)cc(c1O)Cc1cc(-c3ccccc3)cc(c1O)Cc1cc(-c3ccccc3)cc(c1O)C2 |  |  | 20 - 50%
6 | O=S(=O)(O)c1cc2c(O)c(c1)Cc1cc(S(=O)(=O)O)cc(c1O)Cc1cc(S(=O)(=O)O)cc(c1O)Cc1cc(S(=O)(=O)O)cc(c1O)Cc1cc(S(=O)(=O)O)cc(c1O)Cc1cc(S(=O)(=O)O)cc(c1O)Cc1cc(S(=O)(=O)O)cc(c1O)Cc1cc(S(=O)(=O)O)cc(c1O)C2 |  |  | 50 - 80%
7 | CC(C)(C)c1cc2c(OCCOCCOCCOCCOCCOCCO)c(c1)Cc1cc(C(C)(C)C)cc(c1OCCOCCOCCOCCOCCOCCO)Cc1cc(C(C)(C)C)cc(c1OCCOCCOCCOCCOCCOCCO)Cc1cc(C(C)(C)C)cc(c1OCCOCCOCCOCCOCCOCCO)Cc1cc(C(C)(C)C)cc(c1OCCOCCOCCOCCOCCOCCO)Cc1cc(C(C)(C)C)cc(c1OCCOCCOCCOCCOCCOCCO)C2 |  |  | 80 - 100%
8 | Clc1nc(-c2ccco2)c2ncn(C3CCOCC3)c2n1 | 6 | 36 | 
9 | Cn1cnc2c(-c3ccco3)ncnc21 | 0 | <10 | 
10 | OCCOCCOCCOCCOCCOCCOCCOCCOCCOCCOCCOCCOc1c2cc(-c3ccccc3)cc1Cc1cc(-c3ccccc3)cc(c1OCCOCCOCCOCCOCCOCCOCCOCCOCCOCCOCCOCCO)Cc1cc(-c3ccccc3)cc(c1OCCOCCOCCOCCOCCOCCOCCOCCOCCOCCOCCOCCO)Cc1cc(-c3ccccc3)cc(c1OCCOCCOCCOCCOCCOCCOCCOCCOCCOCCOCCOCCO)Cc1cc(-c3ccccc3)cc(c1OCCOCCOCCOCCOCCOCCOCCOCCOCCOCCOCCOCCO)Cc1cc(-c3ccccc3)cc(c1OCCOCCOCCOCCOCCOCCOCCOCCOCCOCCOCCOCCO)Cc1cc(-c3ccccc3)cc(c1OCCOCCOCCOCCOCCOCCOCCOCCOCCOCCOCCOCCO)C2 |  |  | 80 - 100%
11 | c1ccc(-c2ncnc3c2ncn3C2CCOCC2)cc1 | 3 | <10 | 
12 | CC(C)(C)c1cc2c(O)c(c1)Cc1cc(C(C)(C)C)cc(c1OCCOCCOCCOCCOCCOCCO)Cc1cc(C(C)(C)C)cc(c1O)Cc1cc(C(C)(C)C)cc(c1OCCOCCOCCOCCOCCOCCO)Cc1cc(C(C)(C)C)cc(c1O)Cc1cc(C(C)(C)C)cc(c1OCCOCCOCCOCCOCCOCCO)C2 |  |  | 20 - 50%
13 | Clc1nc(-c2cccs2)c2ncn(C3CCOCC3)c2n1 | 7 | 61 | 
14 | CC(C)(C)c1cc2c(OCCOCCOCCOCCOCCOCCO)c(c1)Cc1cc(C(C)(C)C)cc(c1OCCOCCOCCOCCOCCOCCO)Cc1cc(C(C)(C)C)cc(c1OCCOCCOCCOCCOCCOCCO)Cc1cc(C(C)(C)C)cc(c1OCCOCCOCCOCCOCCOCCO)Cc1cc(C(C)(C)C)cc(c1OCCOCCOCCOCCOCCOCCO)Cc1cc(C(C)(C)C)cc(c1OCCOCCOCCOCCOCCOCCO)Cc1cc(C(C)(C)C)cc(c1OCCOCCOCCOCCOCCOCCO)Cc1cc(C(C)(C)C)cc(c1OCCOCCOCCOCCOCCOCCO)C2 |  |  | 80 - 100%
15 | C=CCn1cnc2c(-c3ccco3)ncnc21 | 7 | 11 | 
16 | c1coc(-c2ncnc3c2ncn3CC2CCCCC2)c1 | 22 | 60 | 
17 | CC(C)(C)CC(C)(C)c1cc2c(O)c(c1)Cc1cc(C(C)(C)CC(C)(C)C)cc(c1OCCOCCOCCOCCOCCOCCO)Cc1cc(C(C)(C)CC(C)(C)C)cc(c1O)Cc1cc(C(C)(C)CC(C)(C)C)cc(c1OCCOCCOCCOCCOCCOCCO)Cc1cc(C(C)(C)CC(C)(C)C)cc(c1O)Cc1cc(C(C)(C)CC(C)(C)C)cc(c1OCCOCCOCCOCCOCCOCCO)Cc1cc(C(C)(C)CC(C)(C)C)cc(c1O)Cc1cc(C(C)(C)CC(C)(C)C)cc(c1OCCOCCOCCOCCOCCOCCO)C2 |  |  | 20 - 50%
